The values below come from ChEMBL document CHEMBL5036349, “Development of potent dual PDK1/AurA kinase inhibitors for cancer therapy: Lead-optimization, structural insights, and ADME-Tox profile” (Eur J Med Chem, 2021).

The subject of data set [1] is NCI-H82. Kind of data set: Cytotoxicity against human NCI-H82 cells measured after 72 hrs by MTT assay. The note with it: NCI-H82, 72 h. The format is functional, cell-based. In general terms: Tetrazolium assays rely on reduction of a dye to a coloured formazan, in cell work by metabolically active cells.
Data set [2] is described as follows: Cytotoxicity against human 6647 cells measured after 72 hrs by MTT assay. The format is functional, cell-based. The conditions noted are these: Homo sapiens, 6647, 72 h.
Data set [3] concerns 786-0. Kind of data set: Cytotoxicity against human 786-0 cells measured after 72 hrs by MTT assay. It is filed as functional, cell-based. The note with it: 786-0, 72 h.
The target in data set [4] is {'v': 'CYP2D6', 'o': 'p', 'q': 'Inhibition of CYP2D6 (unknown origin)'} (Homo sapiens, UniProt P10635). The data set can be described thus: Inhibition of CYP2D6 (unknown origin) at 10 uM pre-incubated for 30 min followed by addition of NADPH and measured after 30 min by Luminescence based plate reader method relative to control. It is filed as ADME. The conditions noted are these: time 60 min.

The test system of data set [5] is HEK293. Kind of data set: Cytotoxicity against HEK293 cells at 10 uM measured after 24 to 48 hrs by Cell-titer glo assay relative to control. The format is cell-based. The conditions noted are these: human, hek293, 10 µM, time 24-48 hrs.
Data set [6] relates to CAKI-1. Kind of data set: Cytotoxicity against human CAKI-1 cells measured after 72 hrs by MTT assay. The format is functional, cell-based. The conditions noted are these: CAKI-1, 72 h.
For data set [7], the system named is IGROV-1. Kind of data set: Cytotoxicity against human IGROV-1 cells measured after 72 hrs by MTT assay. The conditions noted are these: IGROV-1, 72 h. It is filed as functional, cell-based.
The subject of data set [8] is TC-32. The data set can be described thus: Cytotoxicity against human TC-32 cells measured after 72 hrs by MTT assay. It is filed as functional, cell-based. The note with it: TC-32, 72 h.
Data set [9] concerns the target 3',5'-cyclic-AMP phosphodiesterase 4C (Homo sapiens) (UniProt Q08493). The data set can be described thus: Inhibition of PDE4C1 (unknown origin) at 10 uM incubated for 60 mins followed by addition of binding agent and measured after 20 mins by Fluorescence Polarization assay relative to control. The conditions noted are these: time 80.0 min. A general note: Fluorescence polarisation rises when a labelled molecule tumbles more slowly, as on binding a larger partner.

In data set [10] the test system is PC-3. The data set can be described thus: Cytotoxicity against human PC-3 cells measured after 72 hrs by MTT assay. The conditions noted are these: PC-3, 72 h. The format is functional, cell-based.
The nature of data set [11]: Cytotoxicity against hTERT cells at 10 uM measured after 24 to 48 hrs by Cell-titer glo assay relative to control. The format is cell-based. The conditions noted are these: human, time 24-48 hrs.
For data set [12], the system named is MCF7. Kind of data set: Cytotoxicity against human MCF7 cells measured after 72 hrs by MTT assay. It is filed as functional, cell-based. The note with it: MCF7, 72 h.
For data set [13], the system named is HCT-116. The data set can be described thus: Cytotoxicity against human HCT-116 cells measured after 72 hrs by MTT assay. The format is functional, cell-based. The note with it: HCT-116, 72 h.
The nature of data set [14]: Cytotoxicity against human TC71 cells measured after 72 hrs by MTT assay. The format is functional, cell-based. The note with it: TC-71, 72 h.
Data set [15] deals with T1, {'v': 'CYP1A2', 'o': 'p', 'q': 'Inhibition of CYP1A2 (unknown origin)'} (Homo sapiens, UniProt P05177).
T1 sequence (P05177 whole entry): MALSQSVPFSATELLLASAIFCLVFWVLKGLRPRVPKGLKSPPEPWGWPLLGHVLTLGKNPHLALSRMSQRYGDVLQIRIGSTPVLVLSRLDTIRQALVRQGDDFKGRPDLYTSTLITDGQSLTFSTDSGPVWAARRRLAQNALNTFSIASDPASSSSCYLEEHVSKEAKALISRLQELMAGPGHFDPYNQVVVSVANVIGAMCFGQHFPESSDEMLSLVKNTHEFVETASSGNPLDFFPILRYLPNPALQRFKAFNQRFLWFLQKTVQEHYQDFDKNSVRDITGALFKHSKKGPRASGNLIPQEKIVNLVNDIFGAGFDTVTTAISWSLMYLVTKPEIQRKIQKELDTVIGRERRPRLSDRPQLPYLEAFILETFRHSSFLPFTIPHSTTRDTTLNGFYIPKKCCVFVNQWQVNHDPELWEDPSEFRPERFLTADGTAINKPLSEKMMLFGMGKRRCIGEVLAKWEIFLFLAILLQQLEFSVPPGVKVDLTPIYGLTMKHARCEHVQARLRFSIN
Kind of data set: Inhibition of CYP1A2 (unknown origin) at 10 uM pre-incubated for 30 min followed by addition of NADPH and measured after 30 min by Luminescence based plate reader method relative to control. The format is ADME. The conditions noted are these: time 60 min.

The subject of data set [16] is NCI-H69. The data set can be described thus: Cytotoxicity against human NCI-H69 cells measured after 72 hrs by MTT assay. It is filed as functional, cell-based. The note with it: NCI-H69, 72 h.
The target in data set [17] is {'v': 'CYP2C19', 'o': 'p', 'q': 'Inhibition of CYP2C19 (unknown origin)'} (Homo sapiens, UniProt P33261). The data set can be described thus: Inhibition of CYP2C19 (unknown origin) at 10 uM pre-incubated for 30 min followed by addition of NADPH and measured after 30 min by Luminescence based plate reader method relative to control. The format is ADME. The note with it: time 60 min.

In data set [18] the target is {'v': 'CYP2C9', 'o': 'p', 'q': 'Inhibition of CYP2C9 (unknown origin)'} (Homo sapiens, UniProt P11712). The data set can be described thus: Inhibition of CYP2C9 (unknown origin) at 10 uM pre-incubated for 30 min followed by addition of NADPH and measured after 30 min by Luminescence based plate reader method relative to control. The format is ADME. The conditions noted are these: time 60 min.

Data set [19] has as its system SK-N-MC. Kind of data set: Cytotoxicity against human SK-N-MC cells measured after 72 hrs by MTT assay. It is filed as functional, cell-based.
Data set [20] is described as follows: Clearance in CD-1 mouse at 10 mg/kg iv measured by UPLC-MS/MS method. The format is ADME, organism-based. The conditions noted are these: in vivo.
For data set [21], the system named is SK-N-MC. The data set can be described thus: Upregulation of Cdc2 protein expression level in human SK-N-MC cell at 1 uM incubated for 2 hrs by western blot analysis. It is filed as functional, tissue-based. (Immunoblotting shows a protein as a band on a membrane.)
Data set [22] has as its system SK-N-MC. The data set can be described thus: Inhibition of human Akt in human SK-N-MC cell assessed as inhibition of Akt phosphorylation at 1 uM measured after 30 min by Western blot analysis. The format is tissue-based.
The target of data set [23] is 3-phosphoinositide-dependent protein kinase 1 (Homo sapiens) (UniProt O15530). The data set can be described thus: Modulation in PDK-1 phosphorylation in human SK-N-MC cell at 1 uM measured after 30 min by Western blot analysis.
In data set [24] the target is Aurora kinase A (Homo sapiens) (UniProt O14965). Kind of data set: Modulation in AURA protein in human SK-N-MC cell at 1 uM measured after 30 min by Western blot analysis. It is filed as tissue-based.
Data set [25] relates to Rec1. The data set can be described thus: Cytotoxicity against human REC1 cells at 30 uM assessed as cell proliferation rate measured after 72 hrs by MTT assay relative to control. The format is functional.
Data set [26] concerns HCT-116. Kind of data set: Cytotoxicity against human HCT-116 cells at 30 uM assessed as cell proliferation rate measured after 72 hrs by MTT assay relative to control. The format is functional.
Data set [27] deals with HCT-116. The data set can be described thus: Anticlonogenic activity against human HCT-116 cells assessed as reduction of cell survival at 0.5 to 20 uM measured after 10 days by SRB staining clonogenic survival assay. The format is functional, cell-based. The conditions noted are these: dose 0.5-20 µM, time 10.0 day.
A short description of data set [28]: AUC (infinity) in CD-1 mouse at 10 mg/kg iv measured by UPLC-MS/MS method. It is filed as ADME, organism-based. Also noted: time infinity, route intravenous, dose 10 mg/kg. The note with it: in vivo.
Data set [29] is described as follows: Half life in CD-1 mouse at 10 mg/kg iv measured by UPLC-MS/MS method. The format is ADME, organism-based. The note with it: in vivo.
Data set [30] can be described thus: Volume of distribution in CD-1 mouse at 10 mg/kg iv measured by UPLC-MS/MS method. The format is ADME, organism-based. The conditions noted are these: in vivo.
Data set [31] can be described thus: Cmax in CD-1 mouse at 10 mg/kg iv measured by UPLC-MS/MS method. Also noted: route intravenous, dose 10 mg/kg. The conditions noted are these: in vivo. The format is ADME, organism-based.
The subject of data set [32] is TC-71. The data set can be described thus: Anticlonogenic activity against human TC71 cells assessed as reduction of cell survival at 0.5 to 20 uM measured after 10 days by SRB staining clonogenic survival assay. The format is functional, cell-based. The conditions noted are these: dose 0.5-20 µM, time 10.0 day.

SMILES strings stand for the structures. Calls of active or inactive are those of the source. The calls are words filed in the database; no cut-off is given here.

Sequence of {'v': 'CYP2C9', 'o': 'p', 'q': 'Inhibition of CYP2C9 (unknown origin)'} (P11712 whole entry): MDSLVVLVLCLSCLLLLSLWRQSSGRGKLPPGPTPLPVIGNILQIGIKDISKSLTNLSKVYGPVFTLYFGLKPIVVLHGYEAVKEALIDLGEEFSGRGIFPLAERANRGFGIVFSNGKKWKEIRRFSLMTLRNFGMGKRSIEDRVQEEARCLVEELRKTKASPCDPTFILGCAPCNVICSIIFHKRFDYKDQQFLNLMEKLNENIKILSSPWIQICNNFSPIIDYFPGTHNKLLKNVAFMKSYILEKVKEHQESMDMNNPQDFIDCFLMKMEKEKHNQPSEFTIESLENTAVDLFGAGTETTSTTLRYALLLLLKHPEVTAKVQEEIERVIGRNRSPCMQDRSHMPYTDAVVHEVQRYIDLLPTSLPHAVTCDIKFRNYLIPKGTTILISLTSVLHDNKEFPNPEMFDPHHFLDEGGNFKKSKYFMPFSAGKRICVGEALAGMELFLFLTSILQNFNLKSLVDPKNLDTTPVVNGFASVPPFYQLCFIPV
Sequence of 3',5'-cyclic-AMP phosphodiesterase 4C (Homo sapiens) (Q08493 whole entry): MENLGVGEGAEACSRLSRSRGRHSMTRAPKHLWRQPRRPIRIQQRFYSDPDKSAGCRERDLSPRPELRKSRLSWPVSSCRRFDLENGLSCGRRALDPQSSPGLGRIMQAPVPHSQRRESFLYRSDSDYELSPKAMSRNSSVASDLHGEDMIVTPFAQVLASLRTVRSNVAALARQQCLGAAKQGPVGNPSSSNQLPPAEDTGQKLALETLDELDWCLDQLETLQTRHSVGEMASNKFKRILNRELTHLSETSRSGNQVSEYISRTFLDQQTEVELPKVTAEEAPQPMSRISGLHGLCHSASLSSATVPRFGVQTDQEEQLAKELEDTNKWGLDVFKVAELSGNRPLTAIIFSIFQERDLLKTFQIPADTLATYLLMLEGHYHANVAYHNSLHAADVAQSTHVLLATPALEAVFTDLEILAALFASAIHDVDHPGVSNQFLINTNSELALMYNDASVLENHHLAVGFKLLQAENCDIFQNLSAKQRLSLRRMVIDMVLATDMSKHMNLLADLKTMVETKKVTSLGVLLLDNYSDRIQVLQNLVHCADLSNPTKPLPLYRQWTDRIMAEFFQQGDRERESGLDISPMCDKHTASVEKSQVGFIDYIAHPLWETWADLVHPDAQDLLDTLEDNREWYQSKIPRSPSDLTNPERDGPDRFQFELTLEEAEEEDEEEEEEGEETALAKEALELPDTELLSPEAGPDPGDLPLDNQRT
Sequence of {'v': 'CYP2D6', 'o': 'p', 'q': 'Inhibition of CYP2D6 (unknown origin)'} (P10635 whole entry): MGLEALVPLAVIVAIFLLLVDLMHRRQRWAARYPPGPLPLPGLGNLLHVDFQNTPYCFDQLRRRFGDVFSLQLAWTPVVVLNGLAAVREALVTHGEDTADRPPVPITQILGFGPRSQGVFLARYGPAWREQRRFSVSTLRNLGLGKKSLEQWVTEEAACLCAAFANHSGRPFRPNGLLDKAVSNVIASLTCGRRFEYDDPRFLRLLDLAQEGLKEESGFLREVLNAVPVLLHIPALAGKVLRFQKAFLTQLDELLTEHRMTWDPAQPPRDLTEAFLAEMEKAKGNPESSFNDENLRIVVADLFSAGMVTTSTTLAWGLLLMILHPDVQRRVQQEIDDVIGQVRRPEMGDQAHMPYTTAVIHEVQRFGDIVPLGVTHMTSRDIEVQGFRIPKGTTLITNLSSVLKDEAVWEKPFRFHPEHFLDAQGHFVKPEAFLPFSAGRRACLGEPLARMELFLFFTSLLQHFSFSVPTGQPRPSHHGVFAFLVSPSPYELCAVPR
Sequence of {'v': 'CYP2C19', 'o': 'p', 'q': 'Inhibition of CYP2C19 (unknown origin)'} (P33261 whole entry): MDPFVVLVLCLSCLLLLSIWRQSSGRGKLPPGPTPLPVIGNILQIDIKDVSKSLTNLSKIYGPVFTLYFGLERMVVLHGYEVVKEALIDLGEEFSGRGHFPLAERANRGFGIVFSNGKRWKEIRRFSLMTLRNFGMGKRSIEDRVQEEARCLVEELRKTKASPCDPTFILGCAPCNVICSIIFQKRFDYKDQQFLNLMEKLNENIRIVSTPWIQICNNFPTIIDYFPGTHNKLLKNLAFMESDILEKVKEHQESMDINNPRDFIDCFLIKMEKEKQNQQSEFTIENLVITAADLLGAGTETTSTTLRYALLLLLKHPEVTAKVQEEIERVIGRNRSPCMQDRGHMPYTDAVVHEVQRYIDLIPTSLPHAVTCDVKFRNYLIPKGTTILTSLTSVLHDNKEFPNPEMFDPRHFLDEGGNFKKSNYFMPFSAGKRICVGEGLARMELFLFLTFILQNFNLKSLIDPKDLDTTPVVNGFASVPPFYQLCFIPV
Sequence of 3-phosphoinositide-dependent protein kinase 1 (Homo sapiens) (O15530 whole entry, looked up): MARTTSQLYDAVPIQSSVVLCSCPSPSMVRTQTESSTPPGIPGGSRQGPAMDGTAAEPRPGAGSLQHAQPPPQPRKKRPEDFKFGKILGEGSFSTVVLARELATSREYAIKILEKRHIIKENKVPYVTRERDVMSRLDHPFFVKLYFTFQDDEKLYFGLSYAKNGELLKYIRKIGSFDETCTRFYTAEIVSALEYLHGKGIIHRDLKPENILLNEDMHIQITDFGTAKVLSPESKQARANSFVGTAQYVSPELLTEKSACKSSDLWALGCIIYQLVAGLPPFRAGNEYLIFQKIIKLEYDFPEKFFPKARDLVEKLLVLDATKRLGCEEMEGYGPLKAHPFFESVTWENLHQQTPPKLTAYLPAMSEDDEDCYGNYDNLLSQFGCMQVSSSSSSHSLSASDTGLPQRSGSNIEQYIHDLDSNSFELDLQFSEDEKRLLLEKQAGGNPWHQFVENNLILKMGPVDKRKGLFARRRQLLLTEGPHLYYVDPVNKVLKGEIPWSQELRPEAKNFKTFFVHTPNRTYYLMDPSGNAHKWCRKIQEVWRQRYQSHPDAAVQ
Sequence of Aurora kinase A (Homo sapiens) (O14965 whole entry): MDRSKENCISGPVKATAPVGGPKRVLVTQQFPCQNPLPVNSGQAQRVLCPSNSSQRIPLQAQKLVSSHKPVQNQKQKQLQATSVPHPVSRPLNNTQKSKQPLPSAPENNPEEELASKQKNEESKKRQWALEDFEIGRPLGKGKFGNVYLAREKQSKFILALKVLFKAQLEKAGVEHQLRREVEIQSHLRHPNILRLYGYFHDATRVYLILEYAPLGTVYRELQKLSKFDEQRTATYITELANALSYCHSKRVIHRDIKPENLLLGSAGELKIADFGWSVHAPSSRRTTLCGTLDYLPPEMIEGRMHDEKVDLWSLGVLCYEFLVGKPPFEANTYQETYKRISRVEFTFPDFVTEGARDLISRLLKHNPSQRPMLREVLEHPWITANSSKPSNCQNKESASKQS

As a reminder, the IC50 is the point on the concentration scale where inhibition reaches its midpoint. Read a high IC50 as lower potency. As usually defined, the inhibition is the drop in the measured response relative to a control, in per cent. For `Cc1c(Br)cc(C(=O)N[C@@H](C(=O)Nc2ccc3c(c2)/C(=C/c2cnc[nH]2)C(=O)N3)c2ccccc2)c(=O)n1Cc1ccc(F)c(F)c1`, the IC50 in data set [1], in data set [2], in data set [3], in [6], in [7] and in data set [8] was more than 30 µM throughout. Besides, the IC50 in data set [10], in data set [12], in data set [13], in data set [14], in data set [16] and in [19] was more than 30 µM each time. Also, the inhibition at 0.5 h, 10 µM in data set [4], in data set [15], in [17] and in [18] was less than 45% in each case. The Activity in data set [5] and in data set [11] was less than 25% throughout. The molecule further yielded an inhibition in data set [9] of less than 30%.

Take `O=C(CCNC(=O)c1cccn(Cc2ccc(F)c(F)c2)c1=O)Nc1ccc2c(c1)/C(=C/c1cnc[nH]1)C(=O)N2`: the inhibition at 0.5 h, 10 µM in data set [4], in [15], in [17] and in data set [18] was more than 90% throughout. In addition, the Activity in [5] and in data set [11] was less than 25% in each case. This molecule displayed an inhibition in [9] of less than 30%.

The term AUC denotes the area under the concentration-time curve, a measure of exposure. Low readings indicate low exposure, high ones high exposure. The term Vd denotes the apparent volume that relates the amount in the body to the concentration in plasma or blood. A higher Vd goes with wide distribution into tissue. The term Cmax denotes the maximum level reached in the sampled fluid or tissue. For the molecule `O=C1Nc2ccc(NC(=O)[C@H](NC(=O)c3cccn(Cc4ccc(F)c(F)c4)c3=O)c3ccccc3)cc2/C1=C/c1cnc[nH]1` (stereo in doubt), the CL in data set [20] is 75 mL/h. The outcome in data set [21] was Active. In addition, the half-inhibitory concentration (IC50) is more than 30 µM in [1]; 4.8 µM in [2]; more than 30 µM in data set [3]; more than 30 µM in [6]; more than 30 µM in data set [7]; more than 30 µM in data set [8]. Moreover, the IC50 is more than 30 µM in data set [10]; more than 30 µM in data set [12]; 3.6 µM in data set [13]; 16.9 µM in data set [14]; more than 30 µM in [16]; 3 µM in data set [19]. Besides, in [22], the inhibition entry is “Active”. Besides, the result in data set [23] and in data set [24] was inactive. Besides, the Activity in [5] is less than 25%; in data set [27], “Dose-Dependent Effect”; in data set [11], less than 25%; in [32], “Dose-Dependent Effect”. In addition, the Emax at 30 µM turned out to be 55% in data set [25] and 60% in data set [26]. The same molecule showed an inhibition in data set [9] of less than 30%. The molecule further came in with an area under the curve (AUC) in data set [28] of 5720 ng·h/mL. The molecule also registered a t1/2 in data set [29] of 1.5 h. This molecule gave a Vd in [30] of 0.37 L. In [31], this molecule returned a Cmax of 1300 ng/mL.

Regarding `Cc1ccc(C(=O)NCC(=O)Nc2ccc3c(c2)/C(=C/c2cnc[nH]2)C(=O)N3)c(=O)n1Cc1ccc(F)c(F)c1`, the inhibition at 0.5 h, 10 µM in data set [4], in data set [15], in data set [17] and in [18] was more than 90% throughout. For the same molecule, the Activity in data set [5] and in [11] was less than 25% in each case. The molecule also came in with an inhibition in data set [9] of less than 30%.
